# Experiment: Physical and chemical characteristics: solubility in solvents
# Type: physicochemical
substance,measurement,setting,value
"sodium salt of 7-methylthio-3-nitro [1, 2, 4] triazolo [5,1-c] [1, 2, 4] triazin-4 (1H)-one",solubility in acetone,solvent: acetone,soluble
same,solubility in chloroform,solvent: chloroform,insoluble
same,solubility in dimethylformamide,solvent: dimethylformamide,soluble
same,solubility in dimethylsulfoxide,solvent: dimethylsulfoxide,soluble
same,solubility in water,solvent: water,soluble

# Source: US20190055256A1, “ANTI-VIRAL DRUG” (DORING INTERNATIONAL GMBH, priority 2016, published 2019)
